Source: patent US9340590B2 (priority 2011, dated 2016)
Where two headings read alike, the source gives them in different places. Positions of bridges follow the written chain, without caps; N, C: chain ends. Residues, ends and D or L forms follow the SMILES beside them.

Target: hNav1.7 (Homo sapiens, UniProt Q15858)
Test: cell-based
Assay type: cell-based

hNav1.7, sequence (Q15858 whole entry, looked up): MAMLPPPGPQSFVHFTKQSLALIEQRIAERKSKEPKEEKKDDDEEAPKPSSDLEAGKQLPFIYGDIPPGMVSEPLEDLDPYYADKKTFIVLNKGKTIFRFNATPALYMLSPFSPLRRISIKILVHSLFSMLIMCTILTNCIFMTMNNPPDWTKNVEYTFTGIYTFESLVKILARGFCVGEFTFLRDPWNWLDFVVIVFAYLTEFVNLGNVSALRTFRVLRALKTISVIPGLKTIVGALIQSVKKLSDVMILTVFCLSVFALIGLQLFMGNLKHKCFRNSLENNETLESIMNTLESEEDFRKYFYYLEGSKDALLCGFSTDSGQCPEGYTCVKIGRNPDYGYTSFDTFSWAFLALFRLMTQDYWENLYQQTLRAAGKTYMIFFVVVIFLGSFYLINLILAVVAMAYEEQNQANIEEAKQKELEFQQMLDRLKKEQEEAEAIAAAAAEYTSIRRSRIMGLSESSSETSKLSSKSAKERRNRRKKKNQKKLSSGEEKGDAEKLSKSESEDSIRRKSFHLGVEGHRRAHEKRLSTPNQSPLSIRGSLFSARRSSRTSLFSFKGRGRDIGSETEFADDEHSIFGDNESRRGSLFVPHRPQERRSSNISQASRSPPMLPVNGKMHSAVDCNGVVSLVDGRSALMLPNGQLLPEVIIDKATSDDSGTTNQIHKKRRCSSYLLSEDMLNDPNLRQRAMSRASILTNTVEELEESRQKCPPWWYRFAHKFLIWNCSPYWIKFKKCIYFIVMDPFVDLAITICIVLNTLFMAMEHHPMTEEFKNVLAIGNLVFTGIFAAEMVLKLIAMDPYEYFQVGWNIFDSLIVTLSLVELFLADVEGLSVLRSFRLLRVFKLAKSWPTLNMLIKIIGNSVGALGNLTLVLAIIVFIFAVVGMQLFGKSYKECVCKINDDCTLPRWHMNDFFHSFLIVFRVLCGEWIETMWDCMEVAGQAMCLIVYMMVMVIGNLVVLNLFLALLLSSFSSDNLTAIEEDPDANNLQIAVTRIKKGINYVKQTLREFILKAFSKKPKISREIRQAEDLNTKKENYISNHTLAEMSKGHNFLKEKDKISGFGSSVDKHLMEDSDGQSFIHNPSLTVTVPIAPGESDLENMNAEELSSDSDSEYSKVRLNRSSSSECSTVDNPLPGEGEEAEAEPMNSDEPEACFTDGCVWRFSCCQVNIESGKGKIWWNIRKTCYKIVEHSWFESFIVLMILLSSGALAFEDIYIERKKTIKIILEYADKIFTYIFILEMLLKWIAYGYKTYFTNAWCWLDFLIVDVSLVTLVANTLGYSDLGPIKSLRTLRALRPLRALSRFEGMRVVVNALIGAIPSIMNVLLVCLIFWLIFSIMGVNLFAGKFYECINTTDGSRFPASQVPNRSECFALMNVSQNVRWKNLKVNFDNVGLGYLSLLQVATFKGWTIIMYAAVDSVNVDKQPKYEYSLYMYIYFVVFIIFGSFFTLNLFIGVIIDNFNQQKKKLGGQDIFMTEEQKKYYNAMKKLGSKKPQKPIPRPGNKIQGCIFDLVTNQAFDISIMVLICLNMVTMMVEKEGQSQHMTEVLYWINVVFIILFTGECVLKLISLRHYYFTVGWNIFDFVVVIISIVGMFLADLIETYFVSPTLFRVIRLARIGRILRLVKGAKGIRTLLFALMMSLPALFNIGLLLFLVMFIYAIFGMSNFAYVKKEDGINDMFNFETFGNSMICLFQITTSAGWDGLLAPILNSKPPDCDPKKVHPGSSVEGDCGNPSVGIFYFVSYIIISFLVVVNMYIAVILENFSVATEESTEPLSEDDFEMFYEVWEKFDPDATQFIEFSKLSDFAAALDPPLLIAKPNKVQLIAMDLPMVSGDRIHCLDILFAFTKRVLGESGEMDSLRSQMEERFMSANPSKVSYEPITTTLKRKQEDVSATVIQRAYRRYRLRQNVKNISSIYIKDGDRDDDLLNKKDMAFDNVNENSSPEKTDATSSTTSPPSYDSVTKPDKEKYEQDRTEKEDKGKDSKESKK

Row | SMILES | IC50 (read-out: IWQ Use Nav1.7) [µM] | other results
1 | CC[C@H](C)[C@@H]1NC(=O)[C@@H]2CSSC[C@@H]3NC(=O)[C@H](C(C)C)NC(=O)[C@H](CC(C)C)NC(=O)[C@H](CC(N)=O)NC(=O)[C@@H]4CCCN4C(=O)[C@H](CCCNC(=N)N)NC(=O)[C@H](CSSC[C@H](NC(=O)[C@@H](N)CC(=O)O)C(=O)N[C@@H](CC(C)C)C(=O)NCC(=O)N[C@@H](Cc4ccccc4)C(=O)N[C@@H](CCSC)C(=O)N[C@@H](CCCNC(=N)N)C(=O)N[C@@H](CCCCN)C(=O)N2)NC(=O)[C@H](CSSC[C@@H](C(=O)N[C@@H](CCCCN)C(=O)N[C@@H](C)C(=O)N[C@H](C(=O)N[C@@H](Cc2ccccc2)C(N)=O)C(C)C)NC(=O)[C@H](Cc2c[nH]c4ccccc24)NC(=O)[C@H](CCCCN)NC(=O)[C@H](Cc2c[nH]cn2)NC(=O)[C@H]([C@@H](C)O)NC(=O)[C@H](CCCNC(=N)N)NC(=O)[C@H](CO)NC3=O)NC(=O)[C@H](CCCCN)NC(=O)[C@H](CC(=O)O)NC(=O)[C@H](CC(N)=O)NC(=O)[C@H](CC(=O)O)NC(=O)[C@@H]2CCCN2C1=O [compound 14] (H-DCLGFMRKCIPDNDKCCRPNLVCSRTHKWCKAVF-NH2; disulfide 2-17, 9-23, 16-30) | 0.8 | –
2 | CC[C@H](C)[C@@H]1NC(=O)[C@@H]2CSSC[C@@H]3NC(=O)[C@H](C(C)C)NC(=O)[C@H](CC(C)C)NC(=O)[C@H](CC(N)=O)NC(=O)[C@@H]4CCCN4C(=O)[C@H](CCCNC(=N)N)NC(=O)[C@H](CSSC[C@H](NC(=O)[C@@H](N)CC(=O)O)C(=O)N[C@@H](CC(C)C)C(=O)NCC(=O)N[C@@H](Cc4ccccc4)C(=O)N[C@@H](CCSC)C(=O)N[C@@H](CCCNC(=N)N)C(=O)N[C@@H](CCCCN)C(=O)N2)NC(=O)[C@H](CSSC[C@@H](C(=O)N[C@@H](CCCCN)C(=O)N[C@@H](Cc2ccc(O)cc2)C(=O)N[C@H](C(=O)N[C@@H](Cc2ccccc2)C(N)=O)C(C)C)NC(=O)[C@H](Cc2c[nH]c4ccccc24)NC(=O)[C@H](CCCCN)NC(=O)[C@H](Cc2c[nH]cn2)NC(=O)[C@H]([C@@H](C)O)NC(=O)[C@H](CCCNC(=N)N)NC(=O)[C@H](CO)NC3=O)NC(=O)[C@H](CCCCN)NC(=O)[C@H](CC(=O)O)NC(=O)[C@H](CC(N)=O)NC(=O)[C@H](CCCNC(=N)N)NC(=O)[C@@H]2CCCN2C1=O [compound 67] (H-DCLGFMRKCIPRNDKCCRPNLVCSRTHKWCKYVF-NH2; disulfide 2-17, 9-23, 16-30) | 0.11 | –
3 | CC[C@H](C)[C@@H]1NC(=O)[C@@H]2CSSC[C@@H]3NC(=O)[C@H](C(C)C)NC(=O)[C@H](CC(C)C)NC(=O)[C@H](CC(N)=O)NC(=O)[C@@H]4CCCN4C(=O)[C@H](CCCNC(=N)N)NC(=O)[C@H](CSSC[C@H](NC(=O)[C@@H](N)CCCNC(=N)N)C(=O)N[C@@H](CC(C)C)C(=O)NCC(=O)N[C@@H](Cc4ccccc4)C(=O)N[C@@H](CCSC)C(=O)N[C@@H](CCCNC(=N)N)C(=O)N[C@@H](CCCCN)C(=O)N2)NC(=O)[C@H](CSSC[C@@H](C(=O)N[C@@H](CCCCN)C(=O)N[C@@H](Cc2ccc(O)cc2)C(=O)N[C@H](C(=O)N[C@@H](Cc2ccccc2)C(N)=O)C(C)C)NC(=O)[C@H](Cc2c[nH]c4ccccc24)NC(=O)[C@H](CCCCN)NC(=O)[C@H](Cc2c[nH]cn2)NC(=O)[C@H]([C@@H](C)O)NC(=O)[C@H](CCCNC(=N)N)NC(=O)[C@H](CO)NC3=O)NC(=O)[C@H](CCCCN)NC(=O)[C@H](CC(=O)O)NC(=O)[C@H](CC(N)=O)NC(=O)[C@H](CC(=O)O)NC(=O)[C@@H]2CCCN2C1=O [SEQ ID NO: 62] (H-RCLGFMRKCIPDNDKCCRPNLVCSRTHKWCKYVF-NH2; disulfide 2-17, 9-23, 16-30) | 0.11 | –
4 | CC[C@H](C)[C@@H]1NC(=O)[C@@H]2CSSC[C@@H]3NC(=O)[C@H](C(C)C)NC(=O)[C@H](CC(C)C)NC(=O)[C@H](CC(N)=O)NC(=O)[C@@H]4CCCN4C(=O)[C@H](CCCNC(=N)N)NC(=O)[C@H](CSSC[C@H](NC(=O)[C@@H](N)CC(=O)O)C(=O)N[C@@H](CC(C)C)C(=O)NCC(=O)N[C@@H](CCCNC(=N)N)C(=O)N[C@@H](CCSC)C(=O)N[C@@H](CCCNC(=N)N)C(=O)N[C@@H](CCCCN)C(=O)N2)NC(=O)[C@H](CSSC[C@@H](C(=O)N[C@@H](CCCCN)C(=O)N[C@@H](Cc2ccc(O)cc2)C(=O)N[C@H](C(=O)N[C@@H](Cc2ccccc2)C(N)=O)C(C)C)NC(=O)[C@H](Cc2c[nH]c4ccccc24)NC(=O)[C@H](CCCCN)NC(=O)[C@H](Cc2c[nH]cn2)NC(=O)[C@H]([C@@H](C)O)NC(=O)[C@H](CCCNC(=N)N)NC(=O)[C@H](CO)NC3=O)NC(=O)[C@H](CCCCN)NC(=O)[C@H](CC(=O)O)NC(=O)[C@H](CC(N)=O)NC(=O)[C@H](CC(=O)O)NC(=O)[C@@H]2CCCN2C1=O [SEQ ID NO: 156] (H-DCLGRMRKCIPDNDKCCRPNLVCSRTHKWCKYVF-NH2; disulfide 2-17, 9-23, 16-30) | – | IC50 (IonWorks Quattro, clamped to −110 mV, depolarized to −10 mV, 5 min after compound, n=2, read-out: IWQ Use Nav1.7): 3.63 µM
5 | CC[C@H](C)[C@@H]1NC(=O)[C@@H]2CSSC[C@@H]3NC(=O)[C@H](C(C)C)NC(=O)[C@H](CC(C)C)NC(=O)[C@H](CC(N)=O)NC(=O)[C@@H]4CCCN4C(=O)[C@H](CCCNC(=N)N)NC(=O)[C@H](CSSC[C@H](NC(=O)[C@@H](N)CC(=O)O)C(=O)N[C@@H](CC(C)C)C(=O)NCC(=O)N[C@@H](Cc4ccccc4)C(=O)N[C@@H](CCSC)C(=O)N[C@@H](CCCNC(=N)N)C(=O)N[C@@H](CCCCN)C(=O)N2)NC(=O)[C@H](CSSC[C@@H](C(=O)N[C@@H](CCCCN)C(=O)N[C@@H](Cc2ccc(O)cc2)C(=O)N[C@@H](CCCNC(=N)N)C(=O)N[C@@H](Cc2ccccc2)C(N)=O)NC(=O)[C@H](Cc2c[nH]c4ccccc24)NC(=O)[C@H](CCCCN)NC(=O)[C@H](Cc2c[nH]cn2)NC(=O)[C@H]([C@@H](C)O)NC(=O)[C@H](CCCNC(=N)N)NC(=O)[C@H](CO)NC3=O)NC(=O)[C@H](CCCCN)NC(=O)[C@H](CC(=O)O)NC(=O)[C@H](CC(N)=O)NC(=O)[C@H](CC(=O)O)NC(=O)[C@@H]2CCCN2C1=O [compound 74] (H-DCLGFMRKCIPDNDKCCRPNLVCSRTHKWCKYRF-NH2; disulfide 2-17, 9-23, 16-30) | – | IC50 (Table 26, IonWorks Quattro, use, […], read-out: IWQ Use Nav1.7): 0.08 µM
6 | CC[C@H](C)[C@@H]1NC(=O)[C@@H]2CSSC[C@@H]3NC(=O)[C@H](C(C)C)NC(=O)[C@H](CC(C)C)NC(=O)[C@H](CC(N)=O)NC(=O)[C@@H]4CCCN4C(=O)[C@H](CCCNC(=N)N)NC(=O)[C@H](CSSC[C@H](NC(=O)[C@@H](N)CC(=O)O)C(=O)N[C@@H](CC(C)C)C(=O)NCC(=O)N[C@@H](Cc4ccccc4)C(=O)N[C@@H](CCSC)C(=O)N[C@@H](CCCNC(=N)N)C(=O)N[C@@H](CCCCN)C(=O)N2)NC(=O)[C@H](CSSC[C@@H](C(=O)N[C@@H](CCCCN)C(=O)N[C@@H](Cc2ccc(O)cc2)C(N)=O)NC(=O)[C@H](Cc2c[nH]c4ccccc24)NC(=O)[C@H](CCCCN)NC(=O)[C@H](Cc2c[nH]cn2)NC(=O)[C@H]([C@@H](C)O)NC(=O)[C@H](CCCNC(=N)N)NC(=O)[C@H](CO)NC3=O)NC(=O)[C@H](CCCCN)NC(=O)[C@H](CC(=O)O)NC(=O)[C@H](CC(N)=O)NC(=O)[C@H](CC(=O)O)NC(=O)[C@@H]2CCCN2C1=O [compound 416] (H-DCLGFMRKCIPDNDKCCRPNLVCSRTHKWCKY-NH2; disulfide 2-17, 9-23, 16-30) | – | IC50 (IonWorks Quattro, use-dependent, […], read-out: IWQ Use Nav1.7 (μm)): 1.5 µM
